US20120270819A1, “USE OF COMPOUNDS WITH SGLT-1/SGLT-2 INHIBITOR ACTIVITY FOR PRODUCING MEDICAMENTS FOR TREATMENT OF BONE DISEASE” (SANOFI, priority 2009, published 2012)

Tested on: female Sprague-Dawley mature and young adult rats
Experiment: Ex vivo dual energy X-ray absorptiometry (DXA) of right femur, 28-day oral rat study
Format: in vivo
Method: The following were evaluated: clinical signs (at least weekly), body weight (weekly), food consumption (weekly), hormones (Days 13 and 27), serum and urinary biochemical markers of bone turnover (Days 13 and 27), serum chemistry (at necropsy), bone densitometry by dual energy X-ray absorptiometry (DXA) and peripheral quantitative computed tomography (pQCT) (Week 2 and 4, as well as ex vivo), macroscopic observations at necropsy, organ weights, histopathology, biomechanical strength testing and femoral length measurements.
3.1 Ex Vivo Dual Energy X-Ray Absorptiometry (DXA)
DXA was used to measure bone mineral density (BMD), bone mineral content (BMC) and area. Single DXA scans were obtained for the excised right femur from all animals euthanized at the end of the treatment period (except three animals due to damaged femoral condyles) as well as two found dead animals. These exclusions had no adverse impact on the overall outcome of the study as sufficient specimens were measured in each groups. Scans were performed with a Hologic Discovery A bone densitometer as per PCS-MTL Standard Operating Procedures.

[1] = Mature Adults, 10 mg/kg/day (Table 5a)
[2] = Mature Adults, 10 mg/kg/day, mean
[3] = Mature Adults, 10 mg/kg/day, mean (Table 5a)
[4] = Mature Adults, 50 mg/kg/day (Table 5a)
[5] = Mature Adults, 50 mg/kg/day, mean
[6] = Mature Adults, 50 mg/kg/day, mean (Table 5a)
[7] = Young Adults, 10 mg/kg/day (Table 6a)
[8] = Young Adults, 10 mg/kg/day, mean
[9] = Young Adults, 10 mg/kg/day, mean (Table 6a)
[10] = Young Adults, 50 mg/kg/day (Table 6a)
[11] = Young Adults, 50 mg/kg/day, mean
[12] = Young Adults, 50 mg/kg/day, mean (Table 6a)

**Q.** What does the source list for `COc1ccc(Cc2c(OC3OC(CO)C(F)C(O)C3O)n[nH]c2C(F)(F)F)cc1` (stereo not drawn) [Example 5 of formula II]?
**A.** DXA femur Distal Area, percent difference from Vehicle Control (Mature Adults, 10 mg/kg/day): 1.7%; DXA femur Distal BMC, percent difference from Vehicle Control (Mature Adults, 10 mg/kg/day): 6.2%; DXA femur Distal BMD, percent difference from Vehicle Control (Mature Adults, 10 mg/kg/day): 4.4%; DXA femur Global Area, percent difference from Vehicle Control (Mature Adults, 10 mg/kg/day): 1.9%; DXA femur Global BMC, percent difference from Vehicle Control (Mature Adults, 10 mg/kg/day): 6.0%; DXA femur Global BMD, percent difference from Vehicle Control (Mature Adults, 10 mg/kg/day): 4.0%; DXA femur Mid Area, percent difference from Vehicle Control (Mature Adults, 10 mg/kg/day): 3.9%; DXA femur Mid BMC, percent difference from Vehicle Control (Mature Adults, 10 mg/kg/day): 6.4%; DXA femur Mid BMD, percent difference from Vehicle Control (Mature Adults, 10 mg/kg/day): 2.4%; DXA femur Proximal Area, percent difference from Vehicle Control (Mature Adults, 10 mg/kg/day): 2.4%; DXA femur Proximal BMC, percent difference from Vehicle Control (Mature Adults, 10 mg/kg/day): 6.1%; DXA femur Proximal BMD, percent difference from Vehicle Control (Mature Adults, 10 mg/kg/day): 3.7%; DXA femur Mid Area, percent difference from Vehicle Control [1]: 3.86%; DXA femur Mid BMC, percent difference from Vehicle Control [1]: 6.45%; DXA femur Mid BMD, percent difference from Vehicle Control [1]: 2.35%; DXA femur Distal Area [2]: 0.41 cm^2; DXA femur Distal BMC [2]: 0.14 g; DXA femur Distal BMD [2]: 0.34 g/cm^2; DXA femur Global Area [2]: 1.91 cm^2; DXA femur Global BMC [2]: 0.52 g; DXA femur Global BMD [2]: 0.27 g/cm^2; DXA femur Mid Area [2]: 0.45 cm^2; DXA femur Mid BMC [2]: 0.11 g; DXA femur Mid BMD [2]: 0.24 g/cm^2; DXA femur Proximal Area [2]: 0.63 cm^2; DXA femur Proximal BMC [2]: 0.18 g; DXA femur Proximal BMD [2]: 0.28 g/cm^2; DXA femur Mid Area [3]: 0.45 cm^2; DXA femur Mid BMC [3]: 0.11 g; DXA femur Mid BMD [3]: 0.24 g/cm^2; DXA femur Distal Area, percent difference from Vehicle Control (Mature Adults, 50 mg/kg/day): −0.1%; DXA femur Distal BMC, percent difference from Vehicle Control (Mature Adults, 50 mg/kg/day): 8.3%; DXA femur Distal BMD, percent difference from Vehicle Control (Mature Adults, 50 mg/kg/day): 8.4%; DXA femur Global Area, percent difference from Vehicle Control (Mature Adults, 50 mg/kg/day): −1.2%; DXA femur Global BMC, percent difference from Vehicle Control (Mature Adults, 50 mg/kg/day): 3.7%; DXA femur Global BMD, percent difference from Vehicle Control (Mature Adults, 50 mg/kg/day): 5.0%; DXA femur Mid Area, percent difference from Vehicle Control (Mature Adults, 50 mg/kg/day): −1.0%; DXA femur Mid BMC, percent difference from Vehicle Control (Mature Adults, 50 mg/kg/day): 1.2%; DXA femur Mid BMD, percent difference from Vehicle Control (Mature Adults, 50 mg/kg/day): 2.3%; DXA femur Proximal Area, percent difference from Vehicle Control (Mature Adults, 50 mg/kg/day): 0.1%; DXA femur Proximal BMC, percent difference from Vehicle Control (Mature Adults, 50 mg/kg/day): 3.0%; DXA femur Proximal BMD, percent difference from Vehicle Control (Mature Adults, 50 mg/kg/day): 2.9%; DXA femur Mid Area, percent difference from Vehicle Control [4]: −0.97%; DXA femur Mid BMC, percent difference from Vehicle Control [4]: 1.25%; DXA femur Mid BMD, percent difference from Vehicle Control [4]: 2.26%; DXA femur Distal Area [5]: 0.41 cm^2; DXA femur Distal BMC [5]: 0.14 g; DXA femur Distal BMD [5]: 0.35 g/cm^2; DXA femur Global Area [5]: 1.85 cm^2; DXA femur Global BMC [5]: 0.51 g; DXA femur Global BMD [5]: 0.27 g/cm^2; DXA femur Mid Area [5]: 0.43 cm^2; DXA femur Mid BMC [5]: 0.11 g; DXA femur Mid BMD [5]: 0.24 g/cm^2; DXA femur Proximal Area [5]: 0.61 cm^2; DXA femur Proximal BMC [5]: 0.17 g; DXA femur Proximal BMD [5]: 0.28 g/cm^2; DXA femur Mid Area [6]: 0.43 cm^2; DXA femur Mid BMC [6]: 0.11 g; DXA femur Mid BMD [6]: 0.24 g/cm^2; DXA femur Distal Area, percent difference from Vehicle Control (Young Adults, 10 mg/kg/day): 1.7%; DXA femur Distal BMC, percent difference from Vehicle Control (Young Adults, 10 mg/kg/day): 6.4%; DXA femur Distal BMD, percent difference from Vehicle Control (Young Adults, 10 mg/kg/day): 4.7%; DXA femur Global Area, percent difference from Vehicle Control (Young Adults, 10 mg/kg/day): −2.5%; DXA femur Global BMC, percent difference from Vehicle Control (Young Adults, 10 mg/kg/day): 0.5%; DXA femur Global BMD, percent difference from Vehicle Control (Young Adults, 10 mg/kg/day): 3.2%; DXA femur Mid Area, percent difference from Vehicle Control (Young Adults, 10 mg/kg/day): −0.9%; DXA femur Mid BMC, percent difference from Vehicle Control (Young Adults, 10 mg/kg/day): −2.6%; DXA femur Mid BMD, percent difference from Vehicle Control (Young Adults, 10 mg/kg/day): −1.9%; DXA femur Proximal Area, percent difference from Vehicle Control (Young Adults, 10 mg/kg/day): −2.6%; DXA femur Proximal BMC, percent difference from Vehicle Control (Young Adults, 10 mg/kg/day): −0.8%; DXA femur Proximal BMD, percent difference from Vehicle Control (Young Adults, 10 mg/kg/day): 1.8%; DXA femur Mid Area, percent difference from Vehicle Control [7]: −0.89%; DXA femur Mid BMC, percent difference from Vehicle Control [7]: −2.61%; DXA femur Mid BMD, percent difference from Vehicle Control [7]: −1.87%; DXA femur Distal Area [8]: 0.37 cm^2; DXA femur Distal BMC [8]: 0.10 g; DXA femur Distal BMD [8]: 0.26 g/cm^2; DXA femur Global Area [8]: 1.45 cm^2; DXA femur Global BMC [8]: 0.30 g; DXA femur Global BMD [8]: 0.21 g/cm^2; DXA femur Mid Area [8]: 0.39 cm^2; DXA femur Mid BMC [8]: 0.07 g; DXA femur Mid BMD [8]: 0.17 g/cm^2; DXA femur Proximal Area [8]: 0.50 cm^2; DXA femur Proximal BMC [8]: 0.11 g; DXA femur Proximal BMD [8]: 0.22 g/cm^2; DXA femur Mid Area [9]: 0.39 cm^2; DXA femur Mid BMC [9]: 0.07 g; DXA femur Mid BMD [9]: 0.17 g/cm^2; DXA femur Distal Area, percent difference from Vehicle Control (Young Adults, 50 mg/kg/day): 0.5%; DXA femur Distal BMC, percent difference from Vehicle Control (Young Adults, 50 mg/kg/day): 8.4%; DXA femur Distal BMD, percent difference from Vehicle Control (Young Adults, 50 mg/kg/day): 7.9%; DXA femur Global Area, percent difference from Vehicle Control (Young Adults, 50 mg/kg/day): −4.7%; DXA femur Global BMC, percent difference from Vehicle Control (Young Adults, 50 mg/kg/day): 0.0%; DXA femur Global BMD, percent difference from Vehicle Control (Young Adults, 50 mg/kg/day): 4.9%; DXA femur Mid Area, percent difference from Vehicle Control (Young Adults, 50 mg/kg/day): −0.8%; DXA femur Mid BMC, percent difference from Vehicle Control (Young Adults, 50 mg/kg/day): −3.2%; DXA femur Mid BMD, percent difference from Vehicle Control (Young Adults, 50 mg/kg/day): −2.6%; DXA femur Proximal Area, percent difference from Vehicle Control (Young Adults, 50 mg/kg/day): −4.9%; DXA femur Proximal BMC, percent difference from Vehicle Control (Young Adults, 50 mg/kg/day): −4.0%; DXA femur Proximal BMD, percent difference from Vehicle Control (Young Adults, 50 mg/kg/day): 1.0%; DXA femur Mid Area, percent difference from Vehicle Control [10]: −0.77%; DXA femur Mid BMC, percent difference from Vehicle Control [10]: −3.16%; DXA femur Mid BMD, percent difference from Vehicle Control [10]: −2.62%; DXA femur Distal Area [11]: 0.37 cm^2; DXA femur Distal BMC [11]: 0.10 g; DXA femur Distal BMD [11]: 0.27 g/cm^2; DXA femur Global Area [11]: 1.42 cm^2; DXA femur Global BMC [11]: 0.30 g; DXA femur Global BMD [11]: 0.21 g/cm^2; DXA femur Mid Area [11]: 0.39 cm^2; DXA femur Mid BMC [11]: 0.07 g; DXA femur Mid BMD [11]: 0.17 g/cm^2; DXA femur Proximal Area [11]: 0.49 cm^2; DXA femur Proximal BMC [11]: 0.11 g; DXA femur Proximal BMD [11]: 0.21 g/cm^2; DXA femur Mid Area [12]: 0.39 cm^2; DXA femur Mid BMC [12]: 0.07 g; DXA femur Mid BMD [12]: 0.17 g/cm^2
